Results from patent US12427151B2, “Compositions and method of treating cancer” (The Regents of the University of California, priority 2017, dated 2025).

Assays:
[1] = tested on: GAS; assay: Time course killing of GAS; assay type: cell-based, group A Streptococcus; details: THB; 6-HAP 25 μg/mL, mitomycin C 5 μg/mL, LL-37 10 μM
Description: (§1) (a) Time course killing of GAS in THB containing 6-HAP (25 μg/mL), mitomycin C (5 μg/mL), or LL-37 (10 μM). At each indicated time point, live GAS in the media was measured by counting CFU on an agar plate. The data represent mean±SE of four individual experiments. (b) Membrane permeability of GAS incubated in THB containing 6-HAP (25 μg/mL), mitomycin C (5 μg/mL) and LL-37 (10 μM) for 1 hr. The bacteria with compromised plasma membranes (Red) can be distinguished from those with intact membranes (Green). (c) BrdU incorporation into nascent DNA of GAS after incubation with 6-HAP (25 μg/mL) or mitomycin C (5 μg/mL) in THB containing BrdU (10 μM) for 30 or 60 min. (d) BrdU incorporation into nascent DNA of S. epidermidis ATCC12228 after incubation with 6-HAP (25 μg/mL) or mitomycin C (5 μg/mL) in THB containing BrdU (10 μM) for 60 min. The data represent mean±SE of five individual experiments (*P<0.05 and **P<0.01 by Student's t-test vs vehicle control). (e-f) Capacity of 6-HAP to block in vitro DNA extension by Klenow fragment polymerase. Extension reaction was carried out with IRDye800-labeled 18-nt primer (SEQ ID NO:57) and 25-nt template which required adenosine (X=T) or cytidine (X=G) at the initial base for extension (SEQ ID NO:58) (e). Extension reaction was analyzed on a 20% acrylamide gel by electrophoresis (f). […] GAS survival was measured by counting CFU. […]

[2] = tested on: GAS (NZ131); assay: BrdU incorporation assay in bacteria; assay type: cell-based, group A Streptococcus; details: 6-HAP 25 μg/mL, 30 or 60 min
Description: as §1, with “Extension reaction was carried out with IRDye800-labeled 18-nt primer (SEQ ID NO:57) and 25-nt template which required adenosine (X=T) or cytidine (X=G) at the initial base for extension (SEQ ID NO:58) (e).” left out
(§2) BrdU incorporation assay. […] BrdU incorporation into nascent DNA was measured in a time-dependent manner using BrdU incorporation assay kit (Roche) according to the manual.

[3] = tested on: S. epidermidis (ATCC12228); assay: BrdU incorporation assay in bacteria; assay type: cell-based; details: 6-HAP 25 μg/mL, 60 min
Description: as §1, with “Extension reaction was carried out with IRDye800-labeled 18-nt primer (SEQ ID NO:57) and 25-nt template which required adenosine (X=T) or cytidine (X=G) at the initial base for extension (SEQ ID NO:58) (e).” left out
as §2

[4] = tested on: L5178Y tk+/- mouse lymphoma cells; assay: Mutagenic activity at the thymidine kinase (tk) locus; assay type: cell-based; details: compared to vehicle
Description: Because some nucleobase analogs exert mutagenic activities due to their misrecognition of wrong bases, mutagenic activity of 6-HAP was determined by detecting mutagenic events at the thymidine kinase (tk) locus of L5178Y tk^+/− mouse lymphoma cells.

[5] = tested on: B16F10 melanoma; assay: In vivo tumor growth assay; set-up: species or system C57BL6 mice; details: intravenous 20 mg/kg every 48 hrs for 2 weeks
Description: (a-c) Effect of a single intravascular injection of 6-HAP on skin infection by GAS. The size of the infected lesion was measured by Image-J software (a). Representative images of infected skin (arrow) of mouse treated with 6-HAP or vehicle at Day-1 and Day-3 post infection are shown in (b). Infected skin was removed 24 and 72 hrs after bacterial injection and homogenized in PBS (c). CFUs were enumerated by plating serial dilutions of the homogenate on an agar plate. The data represent mean±SE of eight individual experiments (*P<0.05 and **P<0.01 by Student's t-test vs vehicle control). (d-e) Effect of repeated intravascular administrations with 6-HAP on growth of melanoma in mice. The data represent mean±SE of 10 individual experiments (*P<0.05, **P<0.01 and ***P<0.001 by Student's t-test vs vehicle control) (d). Representative images of tumor (broken line) in mouse treated with 6-HAP or vehicle at Day-9 and Day-13 are shown in (e).
In vivo tumor growth assay. B16F10 were suspended in sterile PBS. Shaved mouse dorsal skin was intradermally injected with 3×10^5 cells/50 μL. The C57BL6 mice were subsequently injected with 6-HAP dissolved in 2.5% DMSO/0.9% NaCl solution (40 mg/mL) at the dose of 20 mg/kg mouse via intravascular route every 48 hrs for 2 weeks. […] Tumor size was measured as the two perpendicular diameters with a caliper and volume was estimated by a formula, width^2×length/2. […]

ONc1ncnc2nc[nH]c12 [6-HAP, 6-N-hydroxyaminopurine]
kinetics of killing, growth of GAS over time [1]: at a rate similar to mitomycin C but slower than LL37 | BrdU incorporation into the genomic DNA of GAS [2]: Significant suppression | BrdU incorporation in S. epidermidis [3]: did not affect | mutagenic activity, mutation frequency at tk locus [4]: did not detect a difference | tumor size suppression compared to vehicle [5]: > 60%
